Reference: patent US10881110B2, “Herbicidal compositions comprising isoxazolo[5,4-b]pyridines” (BASF SE, priority 2014, dated 2021)

Legend:
Test in all cases: greenhouse post-emergence herbicidal test
ABUTH = assay type: in vivo, Abutilon theophrast; set-up: key to herbicidal activity against ABUTH found: rating on a scale from 0 to 100; settings: post emergence
Protocol: (§1) The culture containers used were plastic pots containing medium loamy sand with approximately 4.6% of humus and 69.9% sand as substrate. The seeds of the test plants were sown separately for each species.
(§2) For the post-emergence treatment, the test plants were grown to a plant height of from 1 to 15 cm, depending on the plant habit, and only then treated with the active compounds which had been suspended or emulsified in water. To this end, the test plants were either sown directly, and grown in the same containers, or they were first grown separately as seedlings and transplanted into the test containers a few days prior to treatment.
(§3) Depending on the species, the plants were kept at 10-25° C. and 20-35° C., respectively.
(§4) The test period extended over 1 to 3 weeks. During this time, the plants were tended and their response to the individual treatments was evaluated 20 days after treatment except mentioned otherwise.
(§5) Evaluation was carried out using a scale from 0 to 100. 100 means no emergence of the plants, or complete destruction of at least the above-ground parts, and 0 means no damage or normal course of growth.
(§6) The respective stated components A and B, and, if appropriate, C, were formulated as a 10% by weight strength emulsion concentrate and, with addition of the amount of solvent system, introduced into the spray liquor used for applying the active compound. In the examples, the solvent used was water.
(§7) In the examples below, using the method of S. R. Colby (1967) “Calculating synergistic and antagonistic responses of herbicide combinations”, Weeds 15, p. 22 ff., the value E, which is expected if the activity of the individual active compounds is only additive, was calculated. E=X+Y−(X·Y/100)

ERICA = assay type: in vivo, Conyza canadensis; set-up: key to herbicidal activity against ERICA found: rating on a scale from 0 to 100; settings: post emergence
Protocol: as §1, §2, §3, §4, §5, §6, §7

GERDI = assay type: in vivo, Geranium dissectum; settings: Geranium dissectum, post-emergence, 480 h, post emergence, read-out: herbicidal activity against GERDI found
Protocol: as §1, §2, §3, §4, §5, §6, §7

MATCH = assay type: in vivo, Matricaria recutita; set-up: key to herbicidal activity against MATCH found: rating on a scale from 0 to 100; settings: post emergence
Protocol: as §1, §2, §3, §4, §5, §6, §7

POLCO = assay type: in vivo, Polygonum convolvulus; set-up: key to herbicidal activity against POLCO found: rating on a scale from 0 to 100; settings: post emergence
Protocol: as §1, §2, §3, §4, §5, §6, §7

VIOAR = assay type: in vivo, Viola arvensis; set-up: key to herbicidal activity against VIOAR found / herbicidal activity against VIOLA found: rating on a scale from 0 to 100; settings: post emergence
Protocol: as §1, §2, §3, §4, §5, §6, §7

ALOMY = assay type: in vivo, Alopecurus myosuroides; set-up: key to herbicidal activity against ALOMY found: rating on a scale from 0 to 100; settings: post emergence
Protocol: as §1, §2, §3, §4, §5, §6, §7

GALAP = assay type: in vivo, Galium aparine; set-up: key to herbicidal activity against GALAP found: rating on a scale from 0 to 100; settings: post emergence
Protocol: as §1, §2, §3, §4, §5, §6, §7

APESV = assay type: in vivo, Apera spica-venti; set-up: key to herbicidal activity against APESV found: rating on a scale from 0 to 100; settings: post emergence; applied alone at 0.5 g/ha a.i.
Protocol: as §1, §2, §3, §4, §5, §6, §7

[1] = g/ha a.i.: I.1 125, B.63 0.5, mixture 125+0.5
[2] = g/ha a.i.: I.1 125, B.63 1, mixture 125+1
[3] = a.i. g/ha: I.1 31.25, B.92 0.5, 20 days after treatment
[4] = application rate a.i.: I.1 20.8 g/ha, B.107 (topramezone) 6 g/ha, alone or as mixture (composition 1.107)
[5] = application rate a.i.: I.1 62.5 g/ha, B.107 (topramezone) 6 g/ha, alone or as mixture (composition 1.107)
[6] = applied alone at 31.25 g/ha a.i.
[7] = applied alone at 62.5 g/ha a.i.

## CC(C)C1(C)N=C(c2ncccc2C(=O)O)NC1=O (centres unmarked) [B.35, imazapyr]
ABUTH; Abutilon theophrasti, post-emergence, 480 h, 10 g/ha a.i., read-out: herbicidal activity against ABUTH found
  pest or weed control at 10 g/ha: 90%
ERICA; Erigeron canadensis, post-emergence, 480 h, 5 g/ha a.i., read-out: herbicidal activity against ERICA found
  pest or weed control at 5 g/ha: 75%
GERDI; 10 g/ha a.i.
  pest or weed control at 10 g/ha: 95%
MATCH; Matricaria chamomilla, post-emergence, 480 h, 10 g/ha a.i., read-out: herbicidal activity against MATCH found
  pest or weed control at 10 g/ha: 55%
POLCO; Fallopia convolvulus, post-emergence, 480 h, 5 g/ha a.i., read-out: herbicidal activity against POLCO found
  pest or weed control at 5 g/ha: 95%
VIOAR; Viola arvensis, post-emergence, 5 g/ha a.i., read-out: herbicidal activity against VIOAR found
  pest or weed control at 5 g/ha: 55%

## COC(=O)c1ccc(I)cc1S(=O)(=O)[N-]C(=O)Nc1nc(C)nc(OC)n1.[Na+] [B.44, iodosulfuron-methyl-sodium]
ALOMY; 1 g/ha a.i.
  herbicidal activity against ALOMY found: 20
POLCO; 1 g/ha a.i.
  herbicidal activity against POLCO found: 90

## COC(=O)c1ccccc1S(=O)(=O)NC(=O)N(C)c1nc(C)nc(OC)n1 [B.63, tribenuron-methyl]
ALOMY; [1]
  herbicidal activity against ALOMY found: 0
MATCH; [1]
  herbicidal activity against MATCH found: 30
POLCO; g/ha a.i.: I.1 31.25, B.63 1, mixture 31.25+1
  herbicidal activity against POLCO found: 30
POLCO; [1]
  herbicidal activity against POLCO found: 20
POLCO; [2]
  herbicidal activity against POLCO found: 30
VIOAR; g/ha a.i.: I.1 62.5, B.63 0.5, mixture 62.5+0.5
  herbicidal activity against VIOAR found: 65
VIOAR; [2]
  herbicidal activity against VIOAR found: 40

## CC(C)N(C)S(=O)(=O)NC(=O)c1cc(-n2c(=O)cc(C(F)(F)F)n(C)c2=O)c(F)cc1Cl [B.92, saflufenacil]
ERICA; [3]
  herbicidal activity against ERICA found: 80%
GALAP; [3]
  herbicidal activity against GALAP found: 80%

## Cc1c(C(=O)c2cnn(C)c2O)ccc(S(C)(=O)=O)c1C1=NOCC1 [B.107, topramezone]
ABUTH; [4]
  herbicidal activity against ABUTH found: 85
ABUTH; [5]
  herbicidal activity against ABUTH found: 85
ERICA; [4]
  herbicidal activity against ERICA found: 65
ERICA; [5]
  herbicidal activity against ERICA found: 65
GALAP; [5]
  herbicidal activity against GALAP found: 70
MATCH; [4]
  herbicidal activity against MATCH found: 70
POLCO; [5]
  herbicidal activity against POLCO found: 35

## CCC(CC)Nc1c([N+](=O)[O-])cc(C)c(C)c1[N+](=O)[O-] [B.123, pendimethalin]
ERICA; Erigeron canadensis, post-emergence, 480 h, B.123 alone 500 g/ha a.i., read-out: herbicidal activity against ERICA found
  pest or weed control at 500 g/ha: 30%
ERICA; Erigeron canadensis, post-emergence, 480 h, B.123 alone 1000 g/ha a.i., read-out: herbicidal activity against ERICA found
  pest or weed control at 1000 g/ha: 60%
GERDI; B.123 alone 1000 g/ha a.i.
  pest or weed control at 1000 g/ha: 75%
POLCO; Fallopia convolvulus, post-emergence, 480 h, B.123 alone 1000 g/ha a.i., read-out: herbicidal activity against POLCO found
  pest or weed control at 1000 g/ha: 65%

## CCCOCCN(C(=O)CCl)c1c(CC)cccc1CC [B.135, pretilachlor]
ABUTH; Abutilon theophrasti, post-emergence, 480 h, B.135 100 g/ha a.i., read-out: herbicidal activity against ABUTH found
  pest or weed control at 100 g/ha: 0%
ABUTH; Abutilon theophrasti, post-emergence, 480 h, B.135 200 g/ha a.i., read-out: herbicidal activity against ABUTH found
  pest or weed control at 200 g/ha: 0%
ABUTH; Abutilon theophrasti, post-emergence, 480 h, B.135 400 g/ha a.i., read-out: herbicidal activity against ABUTH found
  pest or weed control at 400 g/ha: 0%
ERICA; Erigeron canadensis, post-emergence, 480 h, B.135 100 g/ha a.i., read-out: herbicidal activity against ERICA found
  pest or weed control at 100 g/ha: 0%
ERICA; Erigeron canadensis, post-emergence, 480 h, B.135 200 g/ha a.i., read-out: herbicidal activity against ERICA found
  pest or weed control at 200 g/ha: 0%
ERICA; Erigeron canadensis, post-emergence, 480 h, B.135 400 g/ha a.i., read-out: herbicidal activity against ERICA found
  pest or weed control at 400 g/ha: 20%
GALAP; Galium aparine, post-emergence, 480 h, B.135 200 g/ha a.i., read-out: herbicidal activity against GALAP found
  pest or weed control at 200 g/ha: 0%
GERDI; B.135 100 g/ha a.i.
  pest or weed control at 100 g/ha: 0%
GERDI; B.135 200 g/ha a.i.
  pest or weed control at 200 g/ha: 0%
GERDI; B.135 400 g/ha a.i.
  pest or weed control at 400 g/ha: 0%
MATCH; Matricaria chamomilla, post-emergence, 480 h, B.135 200 g/ha a.i., read-out: herbicidal activity against MATCH found
  pest or weed control at 200 g/ha: 0%
MATCH; Matricaria chamomilla, post-emergence, 480 h, B.135 400 g/ha a.i., read-out: herbicidal activity against MATCH found
  pest or weed control at 400 g/ha: 0%
POLCO; Fallopia convolvulus, post-emergence, 480 h, B.135 200 g/ha a.i., read-out: herbicidal activity against POLCO found
  pest or weed control at 200 g/ha: 0%

## O=C(O)COc1ccc(Cl)cc1Cl [B.140, 2,4-D]
ABUTH; [6]
  herbicidal activity against ABUTH found: 35
ABUTH; [7]
  herbicidal activity against ABUTH found: 85
ALOMY; [6]
  herbicidal activity against ALOMY found: 0
ALOMY; [7]
  herbicidal activity against ALOMY found: 0
ERICA; [6]
  herbicidal activity against ERICA found: 70
ERICA; [7]
  herbicidal activity against ERICA found: 80
GALAP; [6]
  herbicidal activity against GALAP found: 0
GALAP; [7]
  herbicidal activity against GALAP found: 0
MATCH; [6]
  herbicidal activity against MATCH found: 0
POLCO; [6]
  herbicidal activity against POLCO found: 65
POLCO; [7]
  herbicidal activity against POLCO found: 75
VIOAR; [6]
  herbicidal activity against VIOAR found: 60
VIOAR; [7]
  herbicidal activity against VIOAR found: 65

## CCCCCCCC/C=C\CCCCCCCC(=O)OC [methyl oleate]
ABUTH; Abutilon theophrasti, post-emergence, 480 h, methyl oleate 6 g/ha a.i., read-out: herbicidal activity against ABUTH found
  pest or weed control at 6 g/ha: 0%
ABUTH; Abutilon theophrasti, post-emergence, 480 h, methyl oleate 12 g/ha a.i., read-out: herbicidal activity against ABUTH found
  pest or weed control at 12 g/ha: 0%
ERICA; Erigeron canadensis, post-emergence, 480 h, methyl oleate 3 g/ha a.i., read-out: herbicidal activity against ERICA found
  pest or weed control at 3 g/ha: 0%
ERICA; Erigeron canadensis, post-emergence, 480 h, methyl oleate 6 g/ha a.i., read-out: herbicidal activity against ERICA found
  pest or weed control at 6 g/ha: 0%
ERICA; Erigeron canadensis, post-emergence, 480 h, methyl oleate 12 g/ha a.i., read-out: herbicidal activity against ERICA found
  pest or weed control at 12 g/ha: 0%
GALAP; Galium aparine, post-emergence, 480 h, methyl oleate 12 g/ha a.i., read-out: herbicidal activity against GALAP found
  pest or weed control at 12 g/ha: 0%
GERDI; methyl oleate 3 g/ha a.i.
  pest or weed control at 3 g/ha: 0%
GERDI; methyl oleate 6 g/ha a.i.
  pest or weed control at 6 g/ha: 0%
GERDI; methyl oleate 12 g/ha a.i.
  pest or weed control at 12 g/ha: 0%
MATCH; Matricaria chamomilla, post-emergence, 480 h, methyl oleate 3 g/ha a.i., read-out: herbicidal activity against MATCH found
  pest or weed control at 3 g/ha: 0%
MATCH; Matricaria chamomilla, post-emergence, 480 h, methyl oleate 6 g/ha a.i., read-out: herbicidal activity against MATCH found
  pest or weed control at 6 g/ha: 0%
MATCH; Matricaria chamomilla, post-emergence, 480 h, methyl oleate 12 g/ha a.i., read-out: herbicidal activity against MATCH found
  pest or weed control at 12 g/ha: 0%
POLCO; Fallopia convolvulus, post-emergence, 480 h, methyl oleate 3 g/ha a.i., read-out: herbicidal activity against POLCO found
  pest or weed control at 3 g/ha: 0%
POLCO; Fallopia convolvulus, post-emergence, 480 h, methyl oleate 6 g/ha a.i., read-out: herbicidal activity against POLCO found
  pest or weed control at 6 g/ha: 0%
POLCO; Fallopia convolvulus, post-emergence, 480 h, methyl oleate 12 g/ha a.i., read-out: herbicidal activity against POLCO found
  pest or weed control at 12 g/ha: 0%

## COc1nn(C(=O)NS(=O)(=O)c2c(C(=O)O)csc2C)c(=O)n1C [thiencarbazone]
APESV
  herbicidal activity against APESV found: 25
ERICA; applied alone at 0.5 g/ha a.i.
  herbicidal activity against ERICA found: 85
